Experimental data from patent US20220323406A1, “METHODS AND COMPOSITIONS FOR DIFFERENTIATING STEM CELLS” (Massachusetts Institute of Technology, priority 2019, published 2022).

Legend:
Conditions in all cases: primary screen
[1] = tested on: ENR+CD organoids (ISC to Paneth cell differentiation); test: Primary screen: basal (non-stimulated) lysozyme secretion LYZ.NS, 2.5-D 384-well ENR+CD organoid differentiation; assay type: cell-based, mouse
Text: (§1) High-throughput screening.

[2] = tested on: ENR+CD organoids (ISC to Paneth cell differentiation); test: Primary screen: CCh-stimulated lysozyme secretion LYZ.S, 2.5-D 384-well ENR+CD organoid differentiation; assay type: cell-based, mouse
Text: as §1

ENR+CD organoids = test: Primary screen: ATP (CellTiter-Glo 3D, CTG) cell number/viability, 2.5-D 384-well ENR+CD organoids;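 further: compounds given at plating and again on day 3 over a 6-day differentiation from ENR+CV stem-cell-enriched precursors, ATP measured on day 6, plate median as control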

Row | Structure (SMILES) | Dose.FC.LYZ.NS ([1]; dose 0.08 uM) | Z.LYZ.NS (standard z score) ([1]; dose 0.08 uM) | Dose.FC.LYZ.NS ([1]; dose 0.40 uM) | Z.LYZ.NS (standard z score) ([1]; dose 0.40 uM) | Dose.FC.LYZ.NS ([1]; dose 2.00 uM) | Z.LYZ.NS (standard z score) ([1]; dose 2.00 uM) | Dose.FC.LYZ.NS ([1]; dose 10.00 uM) | Z.LYZ.NS (standard z score) ([1]; dose 10.00 uM) | Dose.FC.LYZ.S ([2]; dose 0.08 uM) | Dose.FC.LYZ.S ([2]; dose 0.40 uM) | Dose.FC.LYZ.S ([2]; dose 2.00 uM) | Dose.FC.LYZ.S ([2]; dose 10.00 uM) | Dose.FC.CTG (ENR+CD organoids; dose 0.08 uM) | Dose.FC.CTG (ENR+CD organoids; dose 0.40 uM) | Dose.FC.CTG (ENR+CD organoids; dose 2.00 uM) | Dose.FC.CTG (ENR+CD organoids; dose 10.00 uM) | Z.CTG (standard z score) (ENR+CD organoids; dose 0.08 uM) | Z.CTG (standard z score) (ENR+CD organoids; dose 0.40 uM) | Z.CTG (standard z score) (ENR+CD organoids; dose 2.00 uM) | Z.CTG (standard z score) (ENR+CD organoids; dose 10.00 uM)
1 | O=c1ncn2nc(Sc3ccc(F)cc3F)ccc2c1-c1c(Cl)cccc1Cl [VX-745] | 0.092 log2 fold change | 0.805 | 0.004 log2 fold change | 0.031 | 0.021 log2 fold change | 0.186 | −0.006 log2 fold change | −0.049 | 0.154 log2 fold change | 0.054 log2 fold change | 0.058 log2 fold change | 0.038 log2 fold change | 0.186 log2 fold change | 0.146 log2 fold change | 0.018 log2 fold change | 0.022 log2 fold change |  |  |  | 
2 | CCO[C@@H]1OC(=O)C[C@@H]1NC(=O)[C@@H]1CCCN1C(=O)[C@@H](NC(=O)c1ccc(N)c(Cl)c1)C(C)(C)C [VX-765] | 0.043 log2 fold change | 0.371 | 0.036 log2 fold change | 0.317 | 0.059 log2 fold change | 0.516 | 0.022 log2 fold change | 0.190 | 0.091 log2 fold change | 0.032 log2 fold change | 0.061 log2 fold change | 0.174 log2 fold change | 0.154 log2 fold change | 0.232 log2 fold change | 0.165 log2 fold change | 0.254 log2 fold change |  |  |  | 
3 | Cc1ccc(NC(=O)C2(c3ccc4c(c3)OC(F)(F)O4)CC2)nc1-c1cccc(C(=O)O)c1 [VX-809 (Lumacaftor)] | 0.073 log2 fold change | 0.634 | −0.041 log2 fold change | −0.353 | −0.032 log2 fold change | −0.279 | −0.082 log2 fold change | −0.713 | 0.218 log2 fold change | −0.027 log2 fold change | −0.073 log2 fold change | −0.117 log2 fold change | 0.177 log2 fold change | −0.062 log2 fold change | −0.145 log2 fold change | 0.032 log2 fold change | 0.423 | −0.149 | −0.346 | 0.076
4 | COc1cc2/c(=N/c3ccc(Br)cc3F)nc[nH]c2cc1OCC1CCN(C)CC1 [Vandetanib (ZD6474)] | −0.068 log2 fold change | −0.594 | −0.091 log2 fold change | −0.792 | −0.271 log2 fold change | −2.356 | −0.298 log2 fold change | −2.594 | −0.139 log2 fold change | −0.054 log2 fold change | −0.384 log2 fold change | −0.494 log2 fold change | −0.648 log2 fold change | −0.366 log2 fold change | −0.874 log2 fold change | −1.206 log2 fold change | −1.547 | −0.874 | −2.089 | −2.880
5 | C[C@]1(c2nc3c(C(N)=O)cccc3[nH]2)CCCN1 [Veliparib (ABT-888)] | 0.075 log2 fold change | 0.649 | 0.139 log2 fold change | 1.211 | 0.023 log2 fold change | 0.203 | −0.062 log2 fold change | −0.537 | 0.105 log2 fold change | 0.179 log2 fold change | −0.016 log2 fold change | −0.136 log2 fold change | 0.128 log2 fold change | 0.055 log2 fold change | −0.024 log2 fold change | −0.218 log2 fold change | 0.307 | 0.132 | −0.057 | −0.521
